Measurements: US12472223B2, “Methods for reducing symptoms of multiple sclerosis using a six-amino acid long peptide that inhibits CD40-CD154 interaction” (OP-T LLC, priority 2019, dated 2025)

Tests used:
CD4+ and CD8+ cells = experiment: CD4/CD8 ratio in blood of peptide-treated NOD mice (flow cytometry); assay type: in vivo, mouse
Method: (§1) Peptides were designed based on the amino acid sequence of mouse CD154 protein (SEQ ID NO:1) in the SwissPro database. These pre-designed peptides were then ordered from as made-to-order by New England Peptide. The lyophilized peptides were suspended in phosphate buffered saline at 1 mg/ml. 100 μg of a particular peptide was then injected into the tail vein of 8-9 week old NOD mice. Control mice received 100 μl of phosphate buffered saline. This is well before the onset of diabetes, but after damage to pancreatic islets has begun. Three days after the initial injection, another 100 μg of peptide (or 100 μl of phosphate buffered saline in the case of the Control mice) was injected into the tail vein. Mice were then injected with peptide (or phosphate buffered saline) on a weekly basis. At 10 weeks of age, mice were monitored for diabetes, as indicated by a blood glucose level greater than 250 mg/dL for three consecutive days. During this time, blood was also taken from the tail vein, or by sub-mandibular venal puncture, and the level of CD4+ and CD8+ cells determined by flow cytometry using antibodies for CD4 protein and CD8 protein.

NOD mice = experiment: Development of diabetes in NOD mice treated with CD154 peptides; assay type: in vivo, mouse; details: 100 μg peptide into tail vein of 8-9 week old NOD mice, again after 3 days, then weekly; diabetes = blood glucose >250 mg/dL for three consecutive days
Method: as §1

EAE induced C57BL/6 mice = experiment: EAE disease score in MOG35-55 induced C57BL/6 mice; assay type: in vivo, mouse
Excerpt: One group of mice-C57BL/6 mice from Taconic (Hudson, NY, USA) received KGYY6 (SEQ ID NO: 29) intravenous (IV) injections 3 days and 1 day prior to EAE induction, while another control group received a vehicle of phosphate buffered saline (PBS). EAE was then induced and the mice started to show symptoms on day 10, which is standard for these mice under these conditions. This is further depicted in FIG. 11. On days 13, 20, and 27, the KGYY6 group of mice receive a boost of peptide, while the other group again received PBS via IV injection. […] By day 13, there was a statistically significant difference that lasted throughout the experiment. In FIG. 11—*—asterisks—denote p-value: *—one asterisk is <0.05; **—two asterisks is <0.01; […] is <0.001; and ****—four asterisks is <0.0001. This is a two-way ANOVA with Sidak's multiple comparisons test. Arrows in above lines in FIG. 11 represent days −3, −1, 13, 20, and 27, which correspond to days on which the mice received the KGYY6. Mice were disease scored daily in this study as described in more detail below.
The EAE mouse model can be highly variable even when attempting to control all possible parameters. This variability in EAE may be due to seasonal variations as well as litter differences in the mice. In order to minimize litter-to-litter and seasonal variations, experiments and studies were performed that had 10 mice per group and the mice were randomly mixed once they arrived from the vendor. Female 10-12 week old C57BL/6 mice were immunized subcutaneously on the upper back/neck with 100 μl completely emulsified MOG35-55 peptide (50 μg in 50 μl PBS) and complete Freund's adjuvant (CFA; 75 μg M. Tuberculosis H37 RA (Becton Dickinson and Company (Franklin Lake, NJ, USA)) in 50 μl incomplete Freund's adjuvant (mineral oil)), followed by i.p. pertussis toxin (PT; 200 ng (Sigma-Aldrich® (St. Louis, MO, USA)) in 100 μl PBS) injections. Mice were then randomly assigned to a treatment cohort or vehicle control cohort. One cohort of mice received intravenous injections of the KGYY6 (SEQ ID NO: 29)—25 μg in 100 μl PBS per mouse on days −3, −1, 13, 20, and 27 as described above. Day 0 is the reference starting point for EAE induction. Another cohort received peptide on days −3, −1, 6, 11, 13, and 15. Vehicle control mice received injections of PBS.
All mice were monitored daily for disease and scored in the following manner: 0—no abnormalities; 0.5—clutching hind limbs; 1—limp tail or weak hind limbs and/or wobbly gait; 1.5—limp tail and clutching hind limbs; 2—limp tail and weak hind limbs and/or wobbly gait wherein the mouse supports itself and propels itself using hind limbs; 2.5—limp tail and weak hind limbs and/or wobbly gait wherein the mouse cannot support and propel itself using hind limbs, but the paws are moving. 3—limp tail and one weak hind limb, while the other hind limb is completely paralyzed wherein the mouse uses the weak hind limb to propel itself in some fashion. […] 5—complete paralysis of hind quarter and weak forelimb(s). The data are reported as the mean daily clinical score for all animals in each group. Mice reaching a level 5 or losing more than 20% of their bodyweight are euthanized.
For this study, a group of EAE induced mice were treated with KGYY6 via intravenous (IV) injections on days 11, 13, and 15. Another group of mice were pretreated on days −3 and −1, and received further treatments on days 6, 11, 13, and 15. […]

CD69 = CD69 expression on T cells from dLN and spleen of KGYY6 treated EAE mice; assay type: in vivo, mouse; details: for number of Th40 cells expressing CD69: after 33 days
Method: In this study, the number of CD69 expressing cells were measured and determined in draining lymph nodes (dLN) and spleens harvested from EAE mice at the end of the studies as described in Examples 7, 8, and 9 and the administration of KGYY6, after 33 days.
Lymphocytes from dLN or spleen were stained and gated on the Th40 or conventional CD4 T cells then CD69 expression was analyzed.

CD62L = CD62L expressing T cells from dLN and spleen of KGYY6 treated EAE mice; assay type: in vivo, mouse; details: Th40 and conventional CD4 T cells, versus PBS
Excerpt: L-selectins are expressed on T cells and, depending upon activation status, expression rapidly cycles between high and low levels, thus allowing cells to crawl to areas of inflammation, and to extravasate into the tissue. (Mao-Draayer, Y., et al., Clinical Immunol. 175:10-5, 2017; Butcher, E. C., et al., Science, 272 (5258): 60-6, 1997). CD62L is an L-selectin that has generally been associated with naïve T cells, given its importance in lymph node retention. (Chao, C. C., et al., J. Immunol., 159:1686, 1997; Tedder, T. F., et al., Behring Inst. Mitt., 92:165, 1993). Rather than considering CD62L as a biomarker for naïve T cells, it may be possible that CD62L may be involved in lymph node retention of potentially pathogenic effector cells. The number of CD62L expressing Th40 and conventional CD4 T cells from both spleens and dLN of KGYY6 treated mice were compared to mice treated with vehicle (PBS) only (the control).

intracellular cytokines = experiment: Intracellular cytokine expression in Th40 and conventional CD4 T cells ex vivo from KGYY6 treated EAE mice; set-up: species or system mouse
Method: Intracellular cytokine expression profiles in Th40 and conventional CD4 T cells were examined immediately ex-vivo after 33 days and at the end of the study as described in Example 7.
Other cytokines, such as TNFα, IFNγ, IL-2, and IL-17A were unchanged in response to KGYY6 treatment in both cell types. […] Lymphocytes from dLN or spleen were stained and gated on the Th40 or conventional CD4 T cells then intracellular levels were analyzed. FIGS. 18A-D represent the Th40 cells from spleen. FIGS. 19A-D represent the Th40 cells from dLN. FIGS. 20A-D represent conventional CD4 T cells from the spleen. FIGS. 21A-D represent conventional CD4 T cells from dLN.

[1] = system: Th40 or conventional CD4 T cells; experiment: Memory cell and Th40 cell levels in KGYY6 treated EAE mice; assay type: in vivo, mouse
Method: This study sought to determine whether treatment with KGYY6 had any effect on memory cell levels when administered as described in Example 7 above.
C57BL/6 mice were EAE induced then lymphocytes were stained and gated on Th40 or conventional CD4 T cells and effector and central memory cell levels analyzed in dLN (FIGS. 22A-22D) and spleen (FIGS. 23A-D). Significance was calculated by t-test.

CD40 = experiment: FITC-conjugated KGYY6 staining of PBMC, dLN and splenic lymphocytes; assay type: binding, mouse
Excerpt: To confirm that KGYY6 binds to the intended target cells, peripheral blood was […], dLN lymphocytes, and splenic lymphocytes from mice at 6 and 13 days out from receiving the full EAE regimen. These cells were then stained with an FITC-conjugated KGYY6.
To confirm that the KGYY6 peptide binds specifically to CD40, PBMC was stained from C57BL/6 mice that have the CD154-interacting domain of CD40 knocked out (B6.CD40KO).
FIG. 24A is a dot plot of PBMC, dLN, and splenic lymphocytes that were harvested and then stained. […] CD40 with heat-mapping for KGYY6. Dot plots on the right are CD62L v. CD44 with heat-mapping for KGYY6. […] The results shown in FIG. 24A are from 6 days post EAE induction. FIG. 24B is a histogram depicting KGYY6 staining of B6.CD40KO, control, non-induced C57BL/6, and EAE-induced C57BL/6 mice, 6 and 13 days post induction. Data represents two mice at day 6, three mice at day 13, all with similar results.

[2] = Th40 and conventional CD4 T cells, dLN and spleen
[3] = spleen and dLN, Th40 or conventional CD4 T cells

Compound: CSCC[C@H](NC(=O)[C@@H](NC(=O)[C@H](Cc1ccc(O)cc1)NC(=O)[C@H](Cc1ccc(O)cc1)NC(=O)CNC(=O)[C@H](CCCCN)NC(=O)[C@H](CCCCN)NC(=O)[C@H](C)NC(=O)[C@H](Cc1c[nH]c2ccccc12)NC(=O)[C@H](CCC(N)=O)NC(=O)[C@H](CC(C)C)NC(=O)[C@@H](N)C(C)C)[C@@H](C)O)C(=O)N[C@@H](CCCCN)C(=O)N[C@@H](CO)C(=O)N[C@@H](CC(N)=O)C(=O)O [15-mer peptide, VLQWAKKGYYTMKSN]
- compromise of the immune system as determined by the CD4/CD8 ratio (CD4+ and CD8+ cells): did not result in compromise of the immune system

Compound: AKKGYY [KGYY6, 6-amino acid core region of the 15-mer]
- development of diabetes in NOD mice (NOD mice): significant effects on the development of diabetes
- EAE disease course (EAE induced C57BL/6 mice; 25 μg IV on days -3, -1, 13, 20, 27, versus PBS control): significantly less severe
- EAE disease course (EAE induced C57BL/6 mice; pretreated days -3, -1, further treatments days 6, 11, 13, 15, versus control): significantly less severe disease course
- EAE disease severity, early versus later boosts (EAE induced C57BL/6 mice; pretreated, boosts from day 6 versus from day 13): overall less severe disease if the boosts started early
- EAE disease course (EAE induced C57BL/6 mice; treat-at-symptom group, IV on days 11, 13, 15): less severe disease course compared to control
- CD69 expressed per cell (CD69; Th40 cells from spleen, versus vehicle): significantly more CD69 per cell
- CD69 expressed per cell (CD69; conventional CD4 T cells): did no change the amount of CD69 per cell
- number of conventional CD4 T cells expressing CD69 (CD69; dLN and spleen, versus controls): increased by KGYY6 treatment
- number of Th40 cells expressing CD69 (CD69; dLN, versus vehicle): increased
- number of Th40 cells expressing CD69 (CD69; spleen, versus untreated): significantly greater number
- number of CD62L expressing cells (CD62L): no difference in number of CD62L expressing cells
- IFNγ (intracellular cytokines; [2]): unchanged
- IL-2 (intracellular cytokines; [2]): unchanged
- IL-17A (intracellular cytokines; [2]): unchanged
- TNFα (intracellular cytokines; [2]): unchanged
- intracellular IL-10 (intracellular cytokines; Th40 cells, dLN or spleen): no difference in intracellular IL-10 expression
- intracellular IL-10 (intracellular cytokines; conventional CD4 T cells from dLN, day 33): increase in intracellular IL-10
- Th40 cell population ([1]; EAE mice treated with KGYY6): did not cause a decrease in the Th40 cell population
- CD44+CD62L+ (central memory) cell levels [1, 3]: no difference in the levels of those memory phenotypes
- CD44+CD62L- (effector memory) cell levels [1, 3]: no difference in the levels of those memory phenotypes
- staining of memory cells (CD62L versus CD44) (CD40; PBMC and spleen samples): stained primarily effector (CD44^+CD62L^−) and central memory (CD44^+CD62L^+) cells
- staining of B6.CD40KO cells (CD40; PBMC, CD154-interacting domain of CD40 knocked out): did not stain the B6.CD40KO cells
- staining of CD40- cells (CD40; PBMC, dLN, spleen): not the CD40^− cells
- staining of CD4+CD40+ cells (CD40; PBMC, dLN, spleen, 6 and 13 days post EAE induction): stained the CD4^+CD40^+ cells
- staining of memory cells (CD62L versus CD44) (CD40; dLN samples): more diffuse pattern in dLN samples
- staining of C57BL/6 PBMC (CD40; non-induced and EAE-induced C57BL/6 mice): readily stained both the non-induced and EAE-induced C57BL/6 mice

Compound: KGYY (listed as Mus musculus)
- EAE scores (EAE induced C57BL/6 mice; 4-mer administered prior to onset and then post onset, versus untreated mice): lower EAE scores compared to untreated mice

Compound: WAKKGYYTMK [10-mer]
- development of diabetes in NOD mice (NOD mice): significant effects on the development of diabetes
